From ChEMBL document CHEMBL3507680, “University of Dundee, Gates Library screen for HepG2 cell viability”

Test: Human HepG2 cell viability assay in 384 well format
Type: toxicity, cell-based
Design: dose 125 nL, time 70.5 hour; cytotoxicity at 70.5 h: concentration not given beside the values
Conditions: HepG2 cells, read-out: Inhibition

SMILES | cytotoxicity at 70.5 h [%]
CN(C)c1cc(CNC(=O)c2cccc(F)c2)ccn1 | 12.7
O=C(NCCN1CCCCCC1=O)c1ccc(=O)[nH]n1 | 2.56
COc1ccccc1C(O)CNC(=O)NCc1cc[nH]n1 (centres undefined) | -4.26
CN(C)c1cc(CNC(=O)c2ccc(F)cc2)ccn1 | 2.85
CC(Cn1ccnc1)NC(=O)NCc1ccc2c(c1)OCCO2 (centres undefined) | 2.17
O=C1CCc2cc(-c3csc(CCN4CCOC4=O)n3)ccc2N1 | 2.18
O=C1CCc2cc(-c3csc(CCN4CCOC4=O)n3)c(F)cc2N1 | 24.3
CC(c1cc(F)ccc1F)N(C)C(=O)NCc1ccnc(N(C)C)c1 (centres undefined) | 2.05
CC(C)c1nc2c(n1C)CCN(CC(=O)Nc1nncs1)C2 | 6.98
CN(C)c1ccc(C(=O)N2CCN(CC(O)C(C)(C)C)CC2)nn1 (centres undefined) | 0.302
CCC(O)CN1CCN(C(=O)c2ccc(N(C)C)nn2)CC1 (centres undefined) | -2.61
Cc1cc(CN2CCOC(CNc3cccnn3)C2)no1 (centres undefined) | 2.59
OCC1CCCN1c1cc(NCc2cccnc2)ncn1 (centres undefined) | -1.41
c1cnnc(NCC2CN(Cc3ccon3)CCO2)c1 (centres undefined) | 26.6
Cn1c(C2CC2)nc2c1CCN(CC(=O)Nc1nccs1)C2 | -6.18
Cc1ncc(CN2CCOC(CNc3cccnn3)C2)s1 (centres undefined) | 2.68
Cc1nnc2n1CCN(C(=O)c1ccnc(N(C)C)c1)C2 | 6.98
CN(Cc1noc(C2CC2)n1)C1CCN(CCS(C)(=O)=O)C1 (centres undefined) | -3.36
CCn1ccnc1CN1CCCC1c1noc(C2CC2)n1 (centres undefined) | -2.39
Cc1ncsc1CNC(=O)N(CCCO)C1CCc2ccccc21 (centres undefined) | -7.98
Cc1nc(C2CCCN2Cc2ccon2)no1 (centres undefined) | -5.54
Cn1ccnc1CNCC1CCCN1c1cccnn1 (centres undefined) | -4.3
FC(F)(F)Cn1ccnc1CNCC1CCCN1c1cccnn1 (centres undefined) | -13.2
Cc1noc(C)c1CN(C)CC(=O)N1CCc2sccc2C1 | -1.77

SMILES | cytotoxicity at 70.5 h [%]
CC(C)c1nc(C2CCCN2Cc2nccn2CC(F)(F)F)no1 (centres undefined) | -8.8
CCOc1ncccc1C(=O)N1CCC(Nc2ccc(C)nn2)CC1 | -2.98
NC(=O)NC(=O)CN1CCN(c2nccs2)CC1 | -11.6
NC(=O)NC(=O)CCN1CCN(c2nccs2)CC1 | 19.6
CNC(=O)NC(=O)CCN1CCN(c2nccs2)CC1 | -0.375
COc1cc(C)c(C(C)NC(=O)NCCCn2cncn2)cc1OC (centres undefined) | -5.14
Cc1nc(CN2CCOC(Cn3cccn3)C2)no1 (centres undefined) | -3.79
CC(C)c1nnc2n1CCN(C(=O)c1ccnc(-n3ccnc3)c1)C2 | 19.7
CC(C)c1nnc2n1CCN(C(=O)c1ccc3c(c1)CCC3)C2 | 0.826
CS(=O)(=O)c1cccc(C(N)c2ccc(F)cc2)c1 (centres undefined) | -3.93
CS(=O)(=O)c1cccc(C(N)c2ccc(Cl)cc2)c1 (centres undefined) | -4.71
COc1ncccc1C(=O)N1CCC(Nc2ccc(C)nn2)CC1 | -4.22
Cc1nc(CN(C)C2CCN(CCc3cnn(C)c3)C2)no1 (centres undefined) | 18.2
Cc1cnc(CN2CCCC(c3cc(C)[nH]n3)C2)cn1 (centres undefined) | 15.7
CC(=O)N(Cc1ncc(C)o1)C1CCN(CCc2cnn(C)c2)C1 (centres undefined) | -11.2
CC(C)c1cnc(CN(C)C2CCN(CCc3cnn(C)c3)C2)o1 (centres undefined) | -5.18
Cc1nc(CN2CCCN(Cc3nccn3C(C)C)CC2)no1 | -15.2
Cc1nc(C)n(CC2CCCN2Cc2cn3ccccc3n2)n1 (centres undefined) | -14.7
Cc1cccc2nc(CN3CCCC3Cn3cncn3)cn12 (centres undefined) | -17
O=C(Cc1ccccc1)NCCNC(=O)c1scnc1Cl | -9.54
O=C(COc1ccccc1)NCCNC(=O)c1scnc1Cl | -11.8
Cc1csc(N2CCCN(C(=O)c3ccoc3C)CC2)n1 | -4.74
Cc1cccc2nc(CN3CCCC3Cn3cccn3)cn12 (centres undefined) | -10.8
CCc1ncc(C(=O)N2CCC(Nc3ccc(C)nn3)CC2)s1 | -8.02

SMILES | cytotoxicity at 70.5 h [%]
CCc1ncc2c(n1)CN(CC(=O)Nc1cccnc1)CC2 | 10.9
COc1cc(S(=O)(=O)N2CCc3ccc(Cl)cc32)cc(C(=O)O)c1OC | -8.43
CCc1ncc2c(n1)CN(C(C)C(=O)Nc1ccc(Cl)cn1)CC2 (centres undefined) | 20.7
CC(C)c1ncc2c(n1)CN(CC(=O)Nc1ccc(Cl)cn1)CC2 | -10.8
Cc1ccc(-c2nnc(CN3CCn4c(nnc4C4CC4)C3)o2)cc1 | -8.76
OC(COCc1ccco1)CN1CCc2c(ncn2C2CC2)C1 (centres undefined) | 1.85
Cc1cc(CNC(=O)CN2CCCC(Cn3cncn3)C2)ccc1F (centres undefined) | 3.75
CCc1noc(C(C)N2CCC(N3CCCCC3)CC2)n1 (centres undefined) | -6.88
CN(C(=O)Cc1cccs1)C1CCN(c2ccccn2)CC1 | -5.49
Cc1ccccc1CCNC(=O)CN1CCCC(Cn2cncn2)C1 (centres undefined) | -3.82
CC(=O)NCCNC(=O)CN1CCCC(Cn2cncn2)C1 (centres undefined) | -4.84
Cn1cnc2c1CCN(Cc1ccc(C(=O)N3CCCC3)cc1)C2 | -3.6
Cc1cc(C)n(CC2CCCN2CCCS(N)(=O)=O)n1 (centres undefined) | -8.83
Cn1cc(CN2CCCN(C(=O)c3cn4ccccc4n3)CC2)cn1 | -0.261
CS(=O)(=O)NCC1CCCN(C(=O)COCc2ccccc2)C1 (centres undefined) | -12.3
O=C(NCc1cc[nH]n1)NCC(c1ccc(F)cc1)N1CCOCC1 (centres undefined) | -12.9
CN1CCN(c2cc(CNC(=O)c3ccc(=O)[nH]n3)ccn2)CC1 | -21.2
Cc1cc(C(=O)NCc2ccnc(N3CCN(C)CC3)c2)c(C)s1 | -18
CC(O)CN1CCC(CNCc2ccccc2Br)CC1 (centres undefined) | -1.26
CC(C)(C)c1n[nH]c(C2CN(C(=O)CCC3CC3)CCO2)n1 (centres undefined) | -9.78
CCn1ccnc1CN1CCN(CC(O)Cn2cccn2)CC1 (centres undefined) | -10.4
CC(O)CN1CCC(CNCc2ccccc2OC(F)(F)F)CC1 (centres undefined) | 2.51
CNc1cc(N2CCCC2CNCc2cnc(C)cn2)ncn1 (centres undefined) | -8.09
CCn1ccnc1CNCC1CCN(CC(O)c2ccccc2)CC1 (centres undefined) | -11

SMILES | cytotoxicity at 70.5 h [%]
c1cnnc(N2CCCC2CNCc2ccsc2)c1 (centres undefined) | -10.1
c1cnnc(N2CCCC2CNCc2nc(-c3ccsc3)no2)c1 (centres undefined) | -20.3
COCCN1CC(C(=O)NCc2ccnc(-n3cccn3)c2)CC1=O (centres undefined) | -6.88
Cc1cc(C)n(CC2CCCN2CCS(=O)(=O)c2ccccc2)n1 (centres undefined) | -24.2
CCc1nc(C2CCCN2C(=O)c2ccoc2C)no1 (centres undefined) | -9.91
CC(C)=CCN1CCOC(Cn2nc(C)cc2C)C1 (centres undefined) | 15.4
CC(C)Cc1noc(CN2CCN(CCOc3ccc(Cl)cc3)CC2)n1 | -10.1
CC(Cn1ccnc1)NC(=O)NCCc1ccccn1 (centres undefined) | -0.19
Fc1ccc(OCc2noc(CN3CCc4cncnc4C3)n2)cc1 | -4.28
Cc1nc(C)n(CC2CCCN(CC(=O)Nc3c(C)n[nH]c3C)C2)n1 (centres undefined) | -7.16
Cc1noc2ncc(C(=O)NCC3CCOC3)cc12 (centres undefined) | 22
Cn1nccc1CNC(=O)Nc1cc(C(F)(F)F)c[nH]c1=O | -7.39
COc1cccc(OCCNCc2c(C)nn(C)c2N(C)C)c1 | -4.8
Cc1ccccc1-c1cc(C(=O)N2CCn3c(C)nnc3C2)[nH]n1 | 0.102
CCOCC(O)CN1CCN(C(=O)c2ccccc2Cl)CC1 (centres undefined) | -2.72
Cc1ccc(NC2CCN(C(=O)c3ccc(Cl)o3)CC2)nn1 | 34.4
Cc1n[nH]c(C)c1NC(=O)CN1CCCC(CNC(=O)C(C)(C)C)C1 (centres undefined) | 2.09
CCc1noc(C(C)N2CCN(Cc3nc(C)c(C)o3)CC2)n1 (centres undefined) | 23.9
Cn1cc(CN2CCCN(C(=O)c3cc(Cl)cn3C)CC2)cn1 | 38.5
CN(C(=O)NCCCN1CCCC1)C1CCN(c2ccccc2)C1=O (centres undefined) | 4.81
O=C(Nc1cn[nH]c1)c1ccc(O)nc1 | 1.6
Cc1noc(C)c1C(=O)NCc1ccnc(OCC(F)(F)F)c1 | -0.701
Cc1cc(CN(C)C(=O)NC2CCCN(c3ncccn3)C2)no1 (centres undefined) | -3.61
CN(CC1COc2ccccc2O1)C(=O)NCCCn1cncn1 (centres undefined) | -4.69

SMILES | cytotoxicity at 70.5 h [%]
O=C(Nc1nccs1)N(CCO)Cc1ccsc1 | 1.52
Cc1cc(C)n(-c2ccc(CNCc3ccc(OC(C)C)cc3)cn2)n1 | -0.102
Cc1ccc(C)c(OC2CCN(C(=O)c3ccc(C)[nH]c3=O)CC2)c1 | -11
O=C(Nc1ccccn1)N(CCO)Cc1ccsc1 | 4.99
CCN(CC)C(=O)Cn1ccc2cc(NC(=O)C3CC3)ccc21 | 7.86
Cc1nc(C)c(CC(=O)Nc2ncc(C)s2)c(=O)[nH]1 | -1.19
Cc1cccc(OCCC(=O)NCC(C)(C)C(N)=O)c1 | 5.99
O=C(CCc1cnn(-c2ccccc2)c1)N1CCCC(n2cccn2)C1 (centres undefined) | 6.67
CC(C)(CNC(=O)NCCOc1cccc(F)c1)C(N)=O | -1.08
Cc1cc(CC(=O)NCc2ccnc(OCC(F)(F)F)c2)no1 | 34
Cc1ncc(CNC(=O)N(C)C2CCN(c3ccccc3)C2=O)s1 (centres undefined) | 3.88
CN1CCCC1CNC(=O)CCCOc1ccc(F)cc1 (centres undefined) | 0.0711
COc1cccc(COCC(=O)N2CCCC(N3CCCC3)CC2)c1 (centres undefined) | 3.21
CN(CC1COc2ccccc2O1)C(=O)NCCCn1ccnc1 (centres undefined) | 33.9
COc1cccc(COCC(=O)N2CCN(CC(C)(C)O)CC2)c1 | 4.32
Cc1cccc(-c2nc(CN3CCCCC3Cn3cncn3)no2)c1 (centres undefined) | -4.62
Cc1cccc2c1OCCC2NCc1c(C)nn(C)c1N(C)C (centres undefined) | 35
O=C(CN1CCC(c2cccc(F)c2)C1)NCc1ccco1 (centres undefined) | 59.3
O=C(NCCCn1cncn1)N1CCCC(N2CCCC2)C1 (centres undefined) | -4.6
CCC1CCCN(C(=O)Cc2csc(-c3ncccn3)n2)C1 (centres undefined) | 36.3
CC(C(=O)N1CCCN(Cc2ccc(C#N)cc2)CC1)n1ccnc1 (centres undefined) | 0.793
COC(=O)CN(C)C1CCc2ccccc21 (centres undefined) | -4.82
Cc1nc(C2CCCN2CCCNS(C)(=O)=O)no1 (centres undefined) | -0.166
